Results published in the supplement of paper PMC11061612.

What was measured:
[1] = system: KP-N-YN (Neuroblastoma); assay: combination Emax (second highest fraction inhibited in the dose matrix, 72 h); higher = more inhibition; extreme values may be limits of the assay
Outline: (§1)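 Cell lines grown in DMEM/F12 or RPMI with 10% FBS were plated in 1536-well plates and held 24 hours at 37°C, 5% CO2 before 72 hours of exposure to two-drug dose matrices, with DMSO typically at 0.2%. CellTiter-Glo 2.0 luminescence gave viability, which was converted to inhibition. Vehicle wells were set to 0 and blank wells to 1. Combination Emax is the second-highest inhibition in the matrix, and Bliss excess is the observed combination effect minus the expected EA + EB − EA·EB, where EA and EB are the single-agent effects.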

[2] = system: CAL-27 (Oral Cavity Carcinoma); assay: Bliss excess, mean over the matrix (fraction); higher = more synergy
Outline: as §1

[3] = system: GA-10 (Burkitt's Lymphoma); assay: as above
Outline: as §1

[4] = system: OACp4C (Esophageal Adenocarcinoma); assay: as above
Outline: as §1

[5] = system: AU565 (Breast Carcinoma); assay: as above
Outline: as §1

[6] = system: CA46 (Burkitt's Lymphoma); assay: as above
Outline: as §1

[7] = system: JVM-2 (B-Cell Non-Hodgkin's Lymphoma); assay: as above
Outline: as §1

[8] = system: HT55 (Colorectal Carcinoma); assay: as above
Outline: as §1

[9] = system: A253 (Head and Neck Carcinoma); assay: as above
Outline: as §1

[10] = system: EPLC-272H (Other Solid Carcinomas); assay: as above
Outline: as §1

[11] = system: KYSE-140 (Esophageal Squamous Cell Carcinoma); assay: as above
Outline: as §1

[12] = system: GCT (Other Solid Carcinomas); assay: as above
Outline: as §1

[13] = system: MKN1 (Gastric Carcinoma); assay: combination Emax (second highest fraction inhibited in the dose matrix, 72 h); higher = more inhibition; extreme values may be limits of the assay
Outline: as §1

[14] = system: NCI-H841 (Small Cell Lung Carcinoma); assay: as above
Outline: as §1

[15] = system: MKN1 (Gastric Carcinoma); assay: Bliss excess, mean over the matrix (fraction); higher = more synergy
Outline: as §1

[16] = system: NCI-H841 (Small Cell Lung Carcinoma); assay: as above
Outline: as §1
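For Bliss excess, mean over the matrix in this document: after 72 h of two-drug dosing.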

Structure (SMILES)	combination Emax [1]	Bliss excess [2]	Bliss excess [3]	Bliss excess [4]	Bliss excess [5]	Bliss excess [6]	Bliss excess [7]	Bliss excess [8]	Bliss excess [9]	Bliss excess [10]	Bliss excess [11]	Bliss excess [12]	combination Emax [13]	combination Emax [14]	Bliss excess [15]	Bliss excess [16]
COc1cc2c(cc1OCCCCCOc1cc3c(cc1OC)C(=O)N1C=C(C)C[C@H]1C=N3)N=C[C@@H]1CC(C)=CN1C2=O [SG3199] + O=C(c1cc(Cc2n[nH]c(=O)c3ccccc23)ccc1F)N1CCN(C(=O)C2CC2)CC1 [Olaparib] (first compound max 0.001 µM, 7x7, partner max 10 µM)	0.341	-0.0664	-0.0335	-0.0268	-0.0315	-0.0357	-0.0219	-0.0358	-0.0426	-0.0023	-0.0186	-0.0325	–	–	–	–
Cc1cc2ncnn2cc1Nc1ncc2c(n1)n(C1CCOCC1)c(=O)n2C [AZD7648] + C=CCn1c(=O)c2cnc(Nc3ccc(N4CCN(C)CC4)cc3)nc2n1-c1cccc(C(C)(C)O)n1 [AZD1775] (first compound max 10 µM, partner max 1 µM)	0.942	0.0108	0.037	-0.0303	-0.043	-0.0416	-0.0458	-0.0027	0.0493	0.0042	0.0004	-0.0309	–	–	–	–
Cc1cc2ncnn2cc1Nc1ncc2c(n1)n(C1CCOCC1)c(=O)n2C [AZD7648] + C[C@@H]1COCCN1C2=NC(=NC(=C2)C3(CC3)[S@](=N)(=O)C)C4=C5C=CNC5=NC=C4 [AZD6738] (first compound max 10 µM, 7x7, partner max 10 µM)	0.947	-0.0327	0.0131	-0.0284	0.0393	0.0493	-0.0555	0.0268	0.0402	-0.0093	-0.0248	0.0097	–	–	–	–
Cc1cc2ncnn2cc1Nc1ncc2c(n1)n(C1CCOCC1)c(=O)n2C [AZD7648] + O=C(c1cc(Cc2n[nH]c(=O)c3ccccc23)ccc1F)N1CCN(C(=O)C2CC2)CC1 [Olaparib] (first compound max 10 µM, 7x7, partner max 10 µM)	0.346	-0.0448	-0.0398	-0.0203	-0.0658	-0.0518	-0.0275	-0.0497	-0.0419	0.0608	-0.0146	-0.0488	–	–	–	–
Cc1cc2ncnn2cc1Nc1ncc2c(n1)n(C1CCOCC1)c(=O)n2C [AZD7648] + CCN(CCO)CCCOc1ccc2c(Nc3cc(CC(=O)Nc4cccc(F)c4)[nH]n3)ncnc2c1 [AZD2811] (first compound max 10 µM, 7x7, partner max 1 µM)	0.6	0.0107	0.112	0.0003	0.0433	0.0249	0.0382	-0.0003	0.0411	0.0143	0.033	0.0625	–	–	–	–
CN(CCO)CC[C@H](CSc1ccccc1)Nc1ccc(S(=O)(=O)NC(=O)c2ccc(N3CCC([C@@H](O)c4ccccc4-c4ccc(Cl)cc4)CC3)cc2)cc1S(=O)(=O)C(F)(F)F [AZD4320] + C1CN(CCC1(C(=O)N[C@@H](CCO)C2=CC=C(C=C2)Cl)N)C3=NC=NC4=C3C=CN4 [Capivasertib] (first compound max 1 µM, 7x7, partner max 3 µM)	–	-0.0362	-0.0283	0.0209	0.0161	-0.0496	-0.0068	-0.0469	-0.0035	-0.0089	-0.0432	-0.021	–	–	–	–
CN(CCO)CC[C@H](CSc1ccccc1)Nc1ccc(S(=O)(=O)NC(=O)c2ccc(N3CCC([C@@H](O)c4ccccc4-c4ccc(Cl)cc4)CC3)cc2)cc1S(=O)(=O)C(F)(F)F [AZD4320] + C=CCn1c(=O)c2cnc(Nc3ccc(N4CCN(C)CC4)cc3)nc2n1-c1cccc(C(C)(C)O)n1 [AZD1775] (first compound max 1 µM, partner max 1 µM)	–	-0.0226	-0.0167	-0.0071	0.0571	0.0175	0.0965	0.0167	0.0503	-0.0069	-0.0161	-0.0363	–	–	–	–
CN(CCO)CC[C@H](CSc1ccccc1)Nc1ccc(S(=O)(=O)NC(=O)c2ccc(N3CCC([C@@H](O)c4ccccc4-c4ccc(Cl)cc4)CC3)cc2)cc1S(=O)(=O)C(F)(F)F [AZD4320] + C[C@@H](Nc1cc(F)cc(F)c1)c1cc(C(=O)N(C)C)cc2c(=O)cc(N3CCOCC3)oc12 [AZD8186] (first compound max 1 µM, 7x7, partner max 3 µM)	–	0.0005	0.0166	–	0.035	0.0317	0.0133	-0.0003	0.0229	0.0633	-0.0136	0.0052	–	–	–	–
CC(=O)c1c(C)c2cnc(Nc3ccc(N4CCNCC4)cn3)nc2n(C2CCCC2)c1=O [Palbociclib] + CN(CC[C@H](CSC1=CC=CC=C1)NC2=C(C=C(C=C2)S(=O)(=O)NC(=O)C3=CC=C(C=C3)N4CCC(CC4)[C@H](C5=CC=CC=C5C6=CC=C(C=C6)Cl)O)S(=O)(=O)C(F)(F)F)CCO [AZD4320] (first compound max 10 µM, 7x7, partner max 1 µM)	–	-0.0667	-0.0385	-0.144	-0.0375	-0.0474	-0.0143	-0.043	-0.101	-0.0283	-0.0355	-0.0137	–	–	–	–
CN(CCO)CC[C@H](CSc1ccccc1)Nc1ccc(S(=O)(=O)NC(=O)c2ccc(N3CCC([C@@H](O)c4ccccc4-c4ccc(Cl)cc4)CC3)cc2)cc1S(=O)(=O)C(F)(F)F [AZD4320] + CC(=O)O[C@H]1C(=O)[C@@]2(C)[C@H]([C@H](OC(=O)c3ccccc3)[C@]3(O)C[C@H](OC(=O)[C@H](O)[C@@H](NC(=O)c4ccccc4)c4ccccc4)C(C)=C1C3(C)C)[C@]1(OC(C)=O)CO[C@@H]1C[C@@H]2O [Paclitaxel] (first compound max 1 µM, 7x7, partner max 3 µM)	–	–	–	–	–	–	–	–	–	–	–	–	0.91	0.968	0.0566	0.0423
C[C@@H](c1ccc2nccn2c1)n1nnc2ncc(-c3cnn(C)c3)nc21 [Savolitinib] + CN(CC[C@H](CSC1=CC=CC=C1)NC2=C(C=C(C=C2)S(=O)(=O)NC(=O)C3=CC=C(C=C3)N4CCC(CC4)[C@H](C5=CC=CC=C5C6=CC=C(C=C6)Cl)O)S(=O)(=O)C(F)(F)F)CCO [AZD4320] (first compound max 1 µM, 7x7, partner max 1 µM)	–	-0.0514	-0.0196	-0.0291	0.0022	-0.0488	-0.0313	-0.0439	-0.0569	-0.0701	0.0044	-0.0527	–	–	–	–
Cc1cc2ncnn2cc1Nc1ncc2c(n1)n(C1CCOCC1)c(=O)n2C [AZD7648] + CN(C)CCCOc1ccc(-c2ccc3ncc4c(c3c2)n(C2CCOCC2)c(=O)n4C)cn1 [AZD0156] (first compound max 10 µM, 7x7, partner max 1 µM)	0.265	0.0004	-0.0067	0.0043	0.0589	-0.0193	-0.0297	0.0035	0.0149	-0.0251	-0.0325	0.0042	–	–	–	–
CN(CCO)CC[C@H](CSc1ccccc1)Nc1ccc(S(=O)(=O)NC(=O)c2ccc(N3CCC([C@@H](O)c4ccccc4-c4ccc(Cl)cc4)CC3)cc2)cc1S(=O)(=O)C(F)(F)F [AZD4320] + Cn1cnc2c(F)c(Nc3ccc(Br)cc3Cl)c(C(=O)NOCCO)cc21 [Selumetinib] (first compound max 1 µM, 7x7, partner max 3 µM)	–	0.0321	-0.0143	0.0737	0.0474	-0.0435	0.025	0.0074	0.0339	0.0108	0.0178	0.0789	–	–	–	–
COc1nnc2ccc(N3CCC(c4ccc(OCCN5CCN(C)C(=O)[C@H]5C)cc4)CC3)nn12 [AZD5153] + CN(CC[C@H](CSC1=CC=CC=C1)NC2=C(C=C(C=C2)S(=O)(=O)NC(=O)C3=CC=C(C=C3)N4CCC(CC4)[C@H](C5=CC=CC=C5C6=CC=C(C=C6)Cl)O)S(=O)(=O)C(F)(F)F)CCO [AZD4320] (first compound max 1 µM, 7x7, partner max 1 µM)	–	0.0151	-0.0394	-0.0404	0.0811	-0.0053	0.0973	-0.0021	0.0043	-0.04	0.0588	0.0204	–	–	–	–
CN(CCO)CC[C@H](CSc1ccccc1)Nc1ccc(S(=O)(=O)NC(=O)c2ccc(N3CCC([C@@H](O)c4ccccc4-c4ccc(Cl)cc4)CC3)cc2)cc1S(=O)(=O)C(F)(F)F [AZD4320] + CCN(CCO)CCCOc1ccc2c(Nc3cc(CC(=O)Nc4cccc(F)c4)[nH]n3)ncnc2c1 [AZD2811] (first compound max 1 µM, 7x7, partner max 1 µM)	–	0.0635	-0.0203	0.0011	0.0712	-0.0191	0.0677	-0.0005	0.0364	0.0873	0.0082	-0.0089	–	–	–	–
CN(CCO)CC[C@H](CSc1ccccc1)Nc1ccc(S(=O)(=O)NC(=O)c2ccc(N3CCC([C@@H](O)c4ccccc4-c4ccc(Cl)cc4)CC3)cc2)cc1S(=O)(=O)C(F)(F)F [AZD4320] + C[C@@H]1COCCN1C2=NC(=NC(=C2)C3(CC3)[S@](=N)(=O)C)C4=C5C=CNC5=NC=C4 [AZD6738] (first compound max 1 µM, 7x7, partner max 10 µM)	–	-0.0544	-0.0075	-0.036	0.0419	-0.0275	0.0102	0.0093	0.0045	-0.0244	-0.0299	-0.0313	–	–	–	–
CN(CCO)CC[C@H](CSc1ccccc1)Nc1ccc(S(=O)(=O)NC(=O)c2ccc(N3CCC([C@@H](O)c4ccccc4-c4ccc(Cl)cc4)CC3)cc2)cc1S(=O)(=O)C(F)(F)F [AZD4320] + Cc1cc2ncnn2cc1Nc1ncc2c(n1)n(C1CCOCC1)c(=O)n2C [AZD7648] (first compound max 1 µM, 7x7, partner max 10 µM)	–	-0.0355	-0.0669	0.0447	-0.0132	-0.0061	-0.0111	-0.0404	-0.0253	-0.0318	-0.0866	-0.0504	–	–	–	–
